Measurements: patent US20250215029A1 (Recludix Pharma, Inc., priority 2022, published 2025)

Target: T1, pY641-STAT6 in PBMC (Homo sapiens, UniProt P42226)
T1 construct: Cryopreserved Peripheral Blood Mononuclear Cells (PBMC) are from AllCells; host or cells: cryopreserved PBMC
T1 sequence (P42226 1-847): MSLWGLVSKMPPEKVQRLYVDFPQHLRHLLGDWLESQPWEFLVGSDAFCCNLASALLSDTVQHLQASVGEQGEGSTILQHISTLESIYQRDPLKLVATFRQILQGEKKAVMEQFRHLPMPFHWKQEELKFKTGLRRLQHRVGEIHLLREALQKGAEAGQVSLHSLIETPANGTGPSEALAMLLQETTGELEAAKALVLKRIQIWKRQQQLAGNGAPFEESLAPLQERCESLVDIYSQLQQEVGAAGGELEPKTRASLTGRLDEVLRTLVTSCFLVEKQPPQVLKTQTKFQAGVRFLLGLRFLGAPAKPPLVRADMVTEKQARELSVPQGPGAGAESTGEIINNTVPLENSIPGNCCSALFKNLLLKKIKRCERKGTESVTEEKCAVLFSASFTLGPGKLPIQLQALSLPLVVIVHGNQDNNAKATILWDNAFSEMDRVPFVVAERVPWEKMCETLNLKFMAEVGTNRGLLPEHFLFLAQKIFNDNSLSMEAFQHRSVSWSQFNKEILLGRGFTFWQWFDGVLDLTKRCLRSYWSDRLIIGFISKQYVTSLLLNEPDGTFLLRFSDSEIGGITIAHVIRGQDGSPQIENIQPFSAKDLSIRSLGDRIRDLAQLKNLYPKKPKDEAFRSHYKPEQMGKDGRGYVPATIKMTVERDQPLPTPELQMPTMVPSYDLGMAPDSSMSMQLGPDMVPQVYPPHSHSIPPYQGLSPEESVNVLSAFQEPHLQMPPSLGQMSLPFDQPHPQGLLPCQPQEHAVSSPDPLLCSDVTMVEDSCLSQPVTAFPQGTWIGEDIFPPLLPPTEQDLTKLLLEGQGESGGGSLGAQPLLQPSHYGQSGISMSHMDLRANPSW
Test: MSD-pSTAT-PBMC Assay (pSTAT6, IL-4 stimulated)
Assay type: cell-based
Conditions: STAT6, PBMC, compound 3 hrs, then 1 ng/mL IL-4 for 10 min; Table 115
Method in brief: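 Cells are preincubated with compound for 3 hrs, then stimulated for 10 min, IL-4 at 1 ng/mL driving STAT6 phosphorylation and IL-6 at 10 ng/mL driving STAT3. Phospho-STAT in lysates is quantified by MSD immunoassay, and IC50 is fitted after subtracting unstimulated wells.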

| Structure (SMILES) | IC50 |
| --- | --- |
| CCCOC(=O)[C@H](C)NP(=O)(Oc1ccccc1)C(F)c1ccc2sc(C(=O)N[C@H]3CCCC[C@H]4CC[C@@H](C(=O)N5C(=O)N(c6cccnc6)C(=O)C56CC6)N4C3=O)cc2c1 (stereo partly drawn) [Compound 452, propyl (((2-(((3S,6S,10aS)-3-(5,7-dioxo-6-(pyridin-3-yl)-4,6-diazaspiro[2.4]heptane-4-carbonyl)-5-oxodecahydropyrrolo [1,2-a]azocin-6-yl)carbamoyl)benzo [b]thiophen-5-yl)fluoromethyl) (phenoxy)phosphoryl)-L-alaninate] | < 100 nM |
| CCCOC(=O)[C@H](C)NP(=O)(Oc1ccccc1)C(F)c1ccc2ccc(C(=O)N[C@H]3CCCC[C@H]4CC[C@@H](C(=O)N5CC(c6ccccc6)CC56CC6)N4C3=O)cc2c1 (stereo partly drawn) [Compound 411, propyl ((fluoro(7-(((3S,6S,10aS)-5-oxo-3-(6-phenyl-4-azaspiro[2.4]heptane-4-carbonyl)decahydropyrrolo[1,2-a]azocin-6-yl)carbamoyl)naphthalen-2-yl)methyl)(phenoxy)phosphoryl)-L-alaninate] | < 100 nM |
| C[C@H](NP(=O)(Cc1ccc2ccc(C(=O)N[C@H]3CCCC[C@H]4CC[C@@H](C(=O)N5CC(c6ccccc6)CC56CC6)N4C3=O)cc2c1)Oc1ccccc1)C(=O)OCC(C)(C)C (stereo partly drawn) [Compound 436, neopentyl (((7-(((3S,6S,10aS)-5-oxo-3-(6-phenyl-4-azaspiro[2.4]heptane-4-carbonyl)decahydropyrrolo[1,2-a]azocin-6-yl)carbamoyl)naphthalen-2-yl)methyl)(phenoxy)phosphoryl)-L-alaninate] | > 3000 nM |
| C[C@H](NP(=O)(Oc1ccccc1)[C@@H](F)c1ccc2sc(C(=O)N[C@H]3CCC[C@H]4CC[C@@H](C(=O)N5C[C@@H](c6cccnc6)CC56CC6)N4C3=O)cc2c1)C(=O)OCc1nnnn1C (stereo partly drawn) [Compound 356, (1-methyl-1H-tetrazol-5-yl)methyl (((R)-fluoro(2-(((3S,6S,9aS)-5-oxo-3-((R)-6-(pyridin-3-yl)-4-azaspiro[2.4]heptane-4-carbonyl)octahydro-1H-pyrrolo[1,2-a]azepin-6-yl)carbamoyl)benzo [b]thiophen-5-yl)methyl)(phenoxy)phosphoryl)-L-alaninate] | 100 to 1000 nM |
| CCCOC(=O)[C@H](C)NP(=O)(Oc1ccccc1)C(F)c1ccc2ccc(C(=O)N[C@H]3CCCC[C@H]4CC[C@@H](C(=O)N5CCC(c6ccn(C7CC7)c(=O)c6)C5)N4C3=O)cc2c1 (stereo partly drawn) [Compound 455, propyl (((7-(((3S,6S,10aS)-3-(3-(1-cyclopropyl-2-oxo-1,2-dihydropyridin-4-yl)pyrrolidine-1-carbonyl)-5-oxodecahydropyrrolo [1,2-a]azocin-6-yl)carbamoyl)naphthalen-2-yl)fluoromethyl) (phenoxy)phosphoryl)-L-alaninate] | > 3000 nM |
| CCCOC(=O)[C@H](C)NP(=O)(Oc1ccccc1)C(F)c1ccc2sc(C(=O)N[C@H]3CCCC[C@H]4CC[C@@H](C(=O)N5C[C@H](c6cccnc6)CC56CC6)N4C3=O)cc2c1 (stereo in doubt) [Compound 459, propyl (((S)-fluoro(2-(((3S,6S,10aS)-5-oxo-3-((S)-6-(pyridin-3-yl)-4-azaspiro[2.4]heptane-4-carbonyl)decahydropyrrolo[1,2-a]azocin-6-yl)carbamoyl)benzo [b]thiophen-5-yl)methyl)(phenoxy)phosphoryl)-L-alaninate] | < 100 nM |
| CCCOC(=O)[C@H](C)NP(=O)(Oc1ccccc1)[C@@H](F)c1ccc2sc(C(=O)N[C@H]3CCCC[C@H]4CC[C@@H](C(=O)N5C(=O)N(c6cccnc6)C(=O)C56CC6)N4C3=O)cc2c1 (stereo partly drawn) [Compound 468, propyl (((R)-(2-(((3S,6S,10aS)-3-(5,7-dioxo-6-(pyridin-3-yl)-4,6-diazaspiro[2.4]heptane-4-carbonyl)-5-oxodecahydropyrrolo [1,2-a]azocin-6-yl)carbamoyl)benzo [b]thiophen-5-yl)fluoromethyl) (phenoxy)phosphoryl)-L-alaninate] | < 100 nM |
